Experimental data: patent US7847132B2, “Hepatic fibrosis inhibitor” (Nippon Hypox Laboratories Incorporated, priority 2008, dated 2010)
Marks after values point to notes of the source that are not given here.

Key:
[1] = test system: rat model with carbon tetrachloride-induced liver cirrhosis; assay: Rat model with carbon tetrachloride-induced liver cirrhosis, Experimental Example 1 (compound 1 0.3 mg/mL in potable water); assay type: in vivo
Description: (§1) To six-week-old Wister male rats, 3 mL/kg of olive oil containing 40% of carbon tetrachloride or olive oil only were subcutaneously administered twice per week for eight weeks. On a parallel with the administration of the carbon tetrachloride, potable water in which 2,3,5-trimethyl hydroquinone-1-hexylether (compound 1) of the hydroquinone derivative identified by the aforementioned general chemical formula (1) is dissolved at a concentration of 0.3 mg/mL was given to one group of rats daily. Simultaneously, to another groups of rats, only water was given.
(§2) There were adopted four animal groups, i.e. olive oil administration group, olive oil-plus-compound 1 administration group, carbon tetrachloride administration group, and carbon tetrachloride-plus-compound 1 administration group, in the experimental example. Each group consists of ten animals. The animals were slaughtered eight weeks after start of administration of the carbon tetrachloride to carry out an examination. The examination items include ELISA measurement of the serum antibody valency of Naofen and RT-PCR measurement of the mRNA-expression level of Naofen in the liver.

[2] = test system: rat model with carbon tetrachloride-induced liver cirrhosis; assay: Rat model with carbon tetrachloride-induced liver cirrhosis, Experimental Example 2 (compound 1 0.1 mg/mL in potable water); assay type: in vivo; conditions: for HA / ALB / ALT / AST / T-Bil: blood; for HA / ALB / ALT / AST / T-Bil / Body weight / Hepatic relative weight / Pancreatic relative weight / Number of animals with ascites retention: n = 10
Description: as §1, §2
An experimental examination was carried out with a rat model with carbon tetrachloride-induced liver cirrhosis in the same manner as the aforementioned experimental Example 1 except for use of the compound 1 with a concentration of 0.1 mg/mL. The examination includes measurements of some hepatic damage indexes such as blood AST, ALT, albumin (ALB) and total bilirubin (T-Bil), measurement of hyaluronan (HA) concentration serving as a maker of hepatic fibrosis, autopsy finding, measurements of body weight and organ weight, measurements of expression levels of TGF-β1 mRNA and type-I collagen mRNA in biologic cells by RT-PCR, and a histopathologic inspection.
The examination results of measurements of the liver weight, spleen weight, and number of animals with ascites retention are shown in Table 3. FIGS. 4 and 5 are photographs of hepatic tissues taken by using a Masson staining method and an immunohistochemical staining method (A: olive oil administration case, B: carbon tetrachloride administration case, C: olive oil-plus-compound 1 administration case, and D: carbon tetrachloride-plus-compound 1 administration case; and horizontal line on the bottom right: 100 μm).

[3] = HX (+) group, 0.3 mg/mL in potable water, 8 weeks, total 7 animals
[4] = CCl4 + Compound 1 0.1 mg/mL in potable water, 8 weeks, mean ± SD
[5] = CCl4 + compound 1 0.1 mg/mL, result in words
[6] = Olive Oil + Compound 1 0.1 mg/mL in potable water, 8 weeks, mean ± SD
[7] = Olive Oil + Compound 1 0.1 mg/mL in potable water, 8 weeks

`CCCCCCOc1cc(C)c(O)c(C)c1C` [Compound 1, 2,3,5-trimethyl hydroquinone-1-hexylether] was tested, and the “increase in mRNA-expression level of Naofen in the liver (RT-PCR)” value ([1]; CCl4 + compound 1 0.3 mg/mL in potable water, weeks 6(+), weeks 8(+), FIG. 1) was “suppressed”, the “number of animals with serum antibody valency of Naofen 4 < V < 16 (ELISA)” value [1, 3] was 1 and the “number of animals with serum antibody valency of Naofen V <= 4 (ELISA)” value [1, 3] was 4. For the same molecule, the “number of animals with serum antibody valency of Naofen V >= 16 (ELISA)” value [1, 3] was 2, the “abnormality in olive oil-plus-compound 1 administration group” value ([1]; olive oil + compound 1 0.3 mg/mL in potable water, 8 weeks) was “no appreciable abnormality” and the “antibody valency increase more than 16 times, compound 1 group (+) versus group (−), Fischer direct probability” value ([1]; serum antibody valency of Naofen, 0.3 mg/mL in potable water) was “significantly fewer”. For the same molecule, the HA ([2]; CCl4 + Compound 1 0.1 mg/mL in potable water, 8 weeks, marker of hepatic fibrosis, mean ± SD) was 237.7 ± 36.6*^+ ng/mL, the ALB [2, 4] was 3.8 ± 0.2*^+ g/dL and the ALT [2, 4] was 422.4 ± 60.5**^++ IU/L. The AST [2, 4] was 603.6 ± 126.3**^++ IU/L, the T-Bil [2, 4] was 0.03 ± 0.02^+ mg/dL and the Body weight [2, 4] was 240.8 ± 8.7 g. For the same molecule, the Hepatic relative weight [2, 4] was 16.1 ± 1.8^+ g (per 100 grams of body weight), the Pancreatic relative weight [2, 4] was 0.28 ± 0.01^+ g (per 100 grams of body weight) and the “Number of animals with ascites retention” value ([2]; CCl4 + Compound 1 0.1 mg/mL in potable water, 8 weeks) was 1. For the same molecule, the “increase in TGF-β1 mRNA-expression level in the liver (RT-PCR)” value ([2]; CCl4 + compound 1 0.1 mg/mL, FIG. 2) was “suppressing increase”, the “increase in type-I collagen mRNA-expression level in the liver (RT-PCR)” value ([2]; CCl4 + compound 1 0.1 mg/mL, FIG. 3) was “suppressing increase” and the “accumulation of fibrous tissue (histopathologic inspection, Masson staining)” value ([2]; CCl4 + compound 1 0.1 mg/mL, hepatic tissue, FIG. 4) was “suppressed”. For the same molecule, the “expression of TGF-β1 (histopathologic inspection, immunohistochemical staining)” value ([2]; CCl4 + compound 1 0.1 mg/mL, hepatic tissue, FIG. 5) was “suppressed”, the “increase in ALT due to administration of carbon tetrachloride” value [2, 5] was “suppressing increase” and the “increase in AST due to administration of carbon tetrachloride” value [2, 5] was “suppressing increase”. For the same molecule, the “increase in hyaluronan concentration due to administration of carbon tetrachloride” value [2, 5] was “suppressing increase”, the ALB [2, 6] was 4.3 ± 0.1 g/dL and the ALT [2, 6] was 93.7 ± 34.1 IU/L. For the same molecule, the AST [2, 6] was 192.7 ± 93.4 IU/L, the HA [2, 6] was 136.7 ± 16.6 ng/mL and the T-Bil [2, 7] was 0 mg/dL. For the same molecule, the Body weight [2, 6] was 361.5 ± 1.5 g, the Hepatic relative weight [2, 6] was 14.8 ± 1.5 g (per 100 grams of body weight) and the Pancreatic relative weight [2, 6] was 0.20 ± 0.01 g (per 100 grams of body weight). The “Number of animals with ascites retention” value [2, 7] was 0 and the “abnormality in olive oil-plus-compound 1 administration group” value ([2]; olive oil + compound 1 0.1 mg/mL in potable water, 8 weeks) was “no appreciable abnormality”.
